Here are results for 13 molecules from patent US20260022142A1, “MACROCYCLIC IMMUNOMODULATORS” (Bristol-Myers Squibb Company, priority 2022, published 2026).

Numbered stars: 1 amine (or outer) side, 2 acyl side, 3 side chain; on linkers, the order of the positions; unused ones are H or OH. Bridge positions count the residues as written; N and C are the ends. Square brackets hold non-standard residues; d marks the D form. Peptide text beside a SMILES is read from it. * marks the point of attachment. ξ: configuration not given here. Phe(4-COOH) = N[C@@H](Cc1ccc(C(=O)O)cc1)C(=O)O; d(γGlu) = O=C(O)[C@@H](CCC(=O)[*:2])N[*:1]; Bip = N[C@@H](Cc1ccc(-c2ccccc2)cc1)C(=O)O; Nle(6-COOH) = N[C@@H](CCCCC(=O)O)C(=O)O; Phe(3-Me) = Cc1cccc(C[C@H](N)C(=O)O)c1; hArg = N=C(N)NCCCC[C@H](N)C(=O)O; Cha = N[C@@H](CC1CCCCC1)C(=O)O; Cit = NC(=O)NCCC[C@H](N)C(=O)O; Thr(3ξ) = CC(O)[C@H](N)C(=O)O; Carboxymethyl = O=C(O)C*; Orn = NCCC[C@H](N)C(=O)O; Aun = NCCCCCCCCCCC(=O)O; Dab = NCC[C@H](N)C(=O)O; AEEA = NCCOCCOCC(=O)O

In general, IC50 refers to the concentration that inhibits the measured activity by half.

For the assay, the target named is T1, PD-1/PD-L1 interaction (PE-labeled human PD-L1-Ig binding to Jurkat cell line over-expressing human PD-1) (Homo sapiens, UniProt Q15116).
T1 construct: expressed in transfected cells; host or cells: Jurkat
T1 sequence (Q15116 25-288): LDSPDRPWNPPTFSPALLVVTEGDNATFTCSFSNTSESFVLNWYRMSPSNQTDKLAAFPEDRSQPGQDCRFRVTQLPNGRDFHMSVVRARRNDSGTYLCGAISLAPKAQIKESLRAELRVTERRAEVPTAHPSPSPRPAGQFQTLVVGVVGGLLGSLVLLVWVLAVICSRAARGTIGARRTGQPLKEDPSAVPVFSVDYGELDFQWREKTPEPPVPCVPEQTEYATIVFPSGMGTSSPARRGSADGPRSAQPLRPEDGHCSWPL
Kind of assay: Jurkat-PD-1 Cell Binding High-Content Screening Assay (CBA). Format: cell-based. To be noted: Jurkat cell line over-expressing human PD-1; PE-labeled PD-L1-Ig 20 nM final; read-out: Jurkat hPD1-PDL1 IC50. In a few lines:
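Jurkat-hPD-1 cells, DMEM/10% FCS; cpd 2 h 37° C; PE-PD-L1-Ig 20 nM final, 1 h; 4% PFA fix + Hoechst 33342, 3× dPBS wash; high-content imaging read-out.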
Take `CC(=O)NCCCC[C@@H]1NC(=O)[C@H](Cc2ccc(-c3ccccc3)cc2)NC(=O)[C@H](Cc2ccc(O)cc2)NC(=O)[C@H](Cc2cccc(C)c2)NC(=O)[C@H](CC(=O)O)NC(=O)[C@H](Cc2ccc(OCC(=O)O)cc2)NC(=O)[C@H](CCCNC(=N)N)NC(=O)CSC[C@@H](C(=O)N[C@@H](CCN)C(=O)NCCCCCCCCCCC(=O)O)NC(=O)[C@H](CCCNC(N)=O)NC(=O)[C@H](C(C)C)NC(=O)[C@H](CC2CCCCC2)NC(=O)[C@H](CCN)NC(=O)[C@@H](CC(C)C)NC(=O)[C@H](CCCN)NC1=O` [Compound 3386] ({CH2CO}-RY(Carboxymethyl)D[Phe(3-Me)]Y[Bip]K(Ac)[Orn][dL][Dab][Cha]V[Cit]C[Dab][Aun]-OH; thioether N-14): the 50% inhibitory concentration (IC50) was determined as 4.4 nM. In the case of `Cc1cccc(C[C@@H]2NC(=O)[C@H](CC(=O)O)NC(=O)[C@H](Cc3ccc(OCC(=O)O)cc3)NC(=O)[C@H](CCCNC(=N)N)NC(=O)CSC[C@@H](C(=O)N[C@@H](CCN)C(=O)NCCCCCCCCCCC(=O)O)NC(=O)[C@H](C(C)O)NC(=O)[C@H](C(C)C)NC(=O)[C@H](CC3CCCCC3)NC(=O)[C@H](CCN)NC(=O)[C@@H](CC(C)C)NC(=O)[C@H](CCCN)NC(=O)[C@H](Cc3ccc(OCC(=O)O)cc3)NC(=O)[C@H](Cc3ccc(-c4ccccc4)cc3)NC(=O)[C@H](CC(C)C)NC2=O)c1` (stereo partly drawn) [Compound 3387] ({CH2CO}-RY(Carboxymethyl)D[Phe(3-Me)]L[Bip]Y(Carboxymethyl)[Orn][dL][Dab][Cha]V[Thr(3ξ)]C[Dab][Aun]-OH; thioether N-14) it was 20.5 nM; in that of `Cc1cccc(C[C@@H]2NC(=O)[C@H](CC(=O)O)NC(=O)[C@H](Cc3ccc(OCC(=O)O)cc3)NC(=O)[C@H](CCCNC(=N)N)NC(=O)CSC[C@@H](C(=O)N[C@@H](CCN)C(=O)NCCCCCCCCCCC(=O)O)NC(=O)[C@H](CCCNC(N)=O)NC(=O)[C@H](C(C)C)NC(=O)[C@H](CC3CCCCC3)NC(=O)[C@H](CCN)NC(=O)[C@@H](CC(C)C)NC(=O)[C@H](CCCN)NC(=O)[C@H](CCCCC(=O)O)NC(=O)[C@H](Cc3ccc(-c4ccccc4)cc3)NC(=O)[C@H](C(C)C)NC2=O)c1` [Compound 3390] ({CH2CO}-RY(Carboxymethyl)D[Phe(3-Me)]V[Bip][Nle(6-COOH)][Orn][dL][Dab][Cha]V[Cit]C[Dab][Aun]-OH; thioether N-14), 9 nM. Consider `CC(=O)NCCCC[C@@H]1NC(=O)[C@H](C(C)C)NC(=O)[C@H](CC2CCCCC2)NC(=O)[C@H](CCN)NC(=O)[C@@H](CC(C)C)NC(=O)[C@H](CCCN)NC(=O)[C@H](Cc2ccc(O)cc2)NC(=O)[C@H](Cc2ccc(-c3ccccc3)cc2)NC(=O)[C@H](C(C)C)NC(=O)[C@H](Cc2c[nH]c3ccccc23)NC(=O)[C@H](CC(=O)O)NC(=O)[C@H](Cc2ccc(OCC(=O)O)cc2)NC(=O)[C@H](CCCNC(=N)N)NC(=O)CSC[C@@H](C(=O)N[C@@H](CCN)C(=O)NCCCCCCCCCCC(=O)O)NC1=O` [Compound 3391] ({CH2CO}-RY(Carboxymethyl)DWV[Bip]Y[Orn][dL][Dab][Cha]VK(Ac)C[Dab][Aun]-OH; thioether N-14), for which the IC50 stood at 8.8 nM. Next, `CC(C)C[C@H]1NC(=O)[C@H](CCCN)NC(=O)[C@H](Cc2ccc(O)cc2)NC(=O)[C@H](Cc2ccc(-c3ccccc3)cc2)NC(=O)[C@H](C(C)C)NC(=O)[C@H](Cc2c[nH]c3ccccc23)NC(=O)[C@H](CC(=O)O)NC(=O)[C@H](Cc2ccc(C(=O)O)cc2)NC(=O)[C@H](CC(N)=O)NC(=O)CSC[C@@H](C(=O)N[C@@H](CCN)C(=O)NCCCCCCCCCCC(=O)O)NC(=O)[C@H](CCC(=O)O)NC(=O)[C@H](C(C)C)NC(=O)[C@H](CC2CCCCC2)NC(=O)[C@H](CCN)NC1=O` [Compound 3392] ({CH2CO}-N[Phe(4-COOH)]DWV[Bip]Y[Orn][dL][Dab][Cha]VEC[Dab][Aun]-OH; thioether N-14): 13.3 nM. As for `CC(C)C[C@H]1NC(=O)[C@H](CCCN)NC(=O)[C@H](Cc2ccc(O)cc2)NC(=O)[C@H](Cc2ccc(-c3ccccc3)cc2)NC(=O)[C@H](C(C)C)NC(=O)[C@H](Cc2c[nH]c3ccccc23)NC(=O)[C@H](CC(=O)O)NC(=O)[C@H](Cc2ccc(OCC(=O)O)cc2)NC(=O)[C@H](CCCNC(=N)N)NC(=O)CSC[C@@H](C(=O)NCCOCCOCC(=O)NCCCCCCCCCCC(=O)O)NC(=O)[C@H](C(C)O)NC(=O)[C@H](C(C)C)NC(=O)[C@H](CC2CCCCC2)NC(=O)[C@H](CCN)NC1=O` (stereo partly drawn) [Compound 3393] ({CH2CO}-RY(Carboxymethyl)DWV[Bip]Y[Orn][dL][Dab][Cha]V[Thr(3ξ)]C[AEEA][Aun]-OH; thioether N-14), the IC50 was 12.8 nM. In the case of `Cc1cccc(C[C@@H]2NC(=O)[C@H](CC(=O)O)NC(=O)[C@H](Cc3ccc(OCC(=O)O)cc3)NC(=O)[C@H](C(C)O)NC(=O)CSC[C@@H](C(=O)NCCOCCOCC(=O)NCCCCCCCCCCC(=O)O)NC(=O)[C@H](CCC(N)=O)NC(=O)[C@H](C(C)C)NC(=O)[C@H](CC3CCCCC3)NC(=O)[C@H](CCN)NC(=O)[C@@H](CC(C)C)NC(=O)[C@H](CCN)NC(=O)[C@H](Cc3ccc(O)cc3)NC(=O)[C@H](Cc3ccc(-c4ccccc4)cc3)NC(=O)[C@H](C(C)C)NC2=O)c1` (stereo partly drawn) [Compound 3394] ({CH2CO}-[Thr(3ξ)]Y(Carboxymethyl)D[Phe(3-Me)]V[Bip]Y[Dab][dL][Dab][Cha]VQC[AEEA][Aun]-OH; thioether N-14) it was 6.9 nM. Next, `CC(C)C[C@H]1NC(=O)[C@H](CCCN)NC(=O)[C@H](Cc2ccc(O)cc2)NC(=O)[C@H](Cc2ccc(-c3ccccc3)cc2)NC(=O)[C@H](C(C)C)NC(=O)[C@H](Cc2c[nH]c3ccccc23)NC(=O)[C@H](CC(=O)O)NC(=O)[C@H](Cc2ccc(OCC(=O)O)cc2)NC(=O)[C@H](CCCCNC(=N)N)NC(=O)CSC[C@@H](C(=O)N[C@@H](CCN)C(=O)NCCCCCCCCCCC(=O)O)NC(=O)[C@H](CCC(=O)O)NC(=O)[C@H](C(C)C)NC(=O)[C@H](CC2CCCCC2)NC(=O)[C@H](CCN)NC1=O` [Compound 3395] ({CH2CO}-[hArg]Y(Carboxymethyl)DWV[Bip]Y[Orn][dL][Dab][Cha]VEC[Dab][Aun]-OH; thioether N-14): 10 nM. Next, `Cc1cccc(C[C@@H]2NC(=O)[C@H](CC(=O)O)NC(=O)[C@H](Cc3ccc(OCC(=O)O)cc3)NC(=O)[C@H](CCCCNC(=N)N)NC(=O)CSC[C@@H](C(=O)NCCOCCOCC(=O)NCCCCCCCCCCC(=O)O)NC(=O)[C@H](CCC(N)=O)NC(=O)[C@H](C(C)C)NC(=O)[C@H](CC3CCCCC3)NC(=O)[C@H](CCN)NC(=O)[C@@H](CC(C)C)NC(=O)[C@H](CCN)NC(=O)[C@H](Cc3ccc(O)cc3)NC(=O)[C@H](Cc3ccc(-c4ccccc4)cc3)NC(=O)[C@H](C(C)C)NC2=O)c1` [Compound 3396] ({CH2CO}-[hArg]Y(Carboxymethyl)D[Phe(3-Me)]V[Bip]Y[Dab][dL][Dab][Cha]VQC[AEEA][Aun]-OH; thioether N-14): 9.1 nM; `Cc1cccc(C[C@@H]2NC(=O)[C@H](CC(=O)O)NC(=O)[C@H](Cc3ccc(OCC(=O)O)cc3)NC(=O)[C@H](C(C)O)NC(=O)CSC[C@@H](C(=O)NCCOCCOCC(=O)NCCCCCCCCCCC(=O)O)NC(=O)[C@H](CCCNC(N)=O)NC(=O)[C@H](C(C)C)NC(=O)[C@H](CC3CCCCC3)NC(=O)[C@H](CCN)NC(=O)[C@@H](CC(C)C)NC(=O)[C@H](CCN)NC(=O)[C@H](Cc3ccc(O)cc3)NC(=O)[C@H](Cc3ccc(-c4ccccc4)cc3)NC(=O)[C@H](C(C)C)NC2=O)c1` (stereo partly drawn) [Compound 3397] ({CH2CO}-[Thr(3ξ)]Y(Carboxymethyl)D[Phe(3-Me)]V[Bip]Y[Dab][dL][Dab][Cha]V[Cit]C[AEEA][Aun]-OH; thioether N-14): 7.4 nM; `Cc1cccc(C[C@@H]2NC(=O)[C@H](CC(=O)O)NC(=O)[C@H](Cc3ccc(OCC(=O)O)cc3)NC(=O)[C@H](CCCNC(=N)N)NC(=O)CSC[C@@H](C(=O)NCCOCCOCC(=O)NCCCCCCCCCCC(=O)O)NC(=O)[C@H](CCC(N)=O)NC(=O)[C@H](C(C)C)NC(=O)[C@H](CC3CCCCC3)NC(=O)[C@H](CCN)NC(=O)[C@@H](CC(C)C)NC(=O)[C@H](CCN)NC(=O)[C@H](Cc3ccc(O)cc3)NC(=O)[C@H](Cc3ccc(-c4ccccc4)cc3)NC(=O)[C@H](C(C)C)NC2=O)c1` [Compound 3398] ({CH2CO}-RY(Carboxymethyl)D[Phe(3-Me)]V[Bip]Y[Dab][dL][Dab][Cha]VQC[AEEA][Aun]-OH; thioether N-14): 5.8 nM. Regarding `CC(C)C[C@H]1NC(=O)[C@H](CCCN)NC(=O)[C@H](CCCNC(N)=O)NC(=O)[C@H](Cc2ccc(-c3ccccc3)cc2)NC(=O)[C@H](C(C)C)NC(=O)[C@H](Cc2c[nH]c3ccccc23)NC(=O)[C@H](CC(=O)O)NC(=O)[C@H](Cc2ccc(OCC(=O)O)cc2)NC(=O)[C@H](CCCNC(=N)N)NC(=O)CSC[C@@H](C(=O)N[C@@H](CCC(=O)O)C(=O)NCCOCCOCC(=O)NCCCCCCCCCCC(=O)O)NC(=O)[C@H](C(C)O)NC(=O)[C@H](C(C)C)NC(=O)[C@H](CC2CCCCC2)NC(=O)[C@H](CCN)NC1=O` (stereo partly drawn) [Compound 3399] ({CH2CO}-RY(Carboxymethyl)DWV[Bip][Cit][Orn][dL][Dab][Cha]V[Thr(3ξ)]CE[AEEA][Aun]-OH; thioether N-14), the IC50 worked out at 19.4 nM.

Regarding `Cc1cccc(C[C@@H]2NC(=O)[C@H](CC(=O)O)NC(=O)[C@H](Cc3ccc(OCC(=O)O)cc3)NC(=O)[C@H](CCCNC(=N)N)NC(=O)CSC[C@@H](C(=O)NCCOCCOCC(=O)N[C@H](CCC(=O)NCCCCCCCCCCC(=O)O)C(=O)O)NC(=O)[C@H](C(C)O)NC(=O)[C@H](C(C)C)NC(=O)[C@H](CC3CCCCC3)NC(=O)[C@H](CCN)NC(=O)[C@@H](CC(C)C)NC(=O)[C@H](CCCN)NC(=O)[C@H](CCCNC(N)=O)NC(=O)[C@H](Cc3ccc(-c4ccccc4)cc3)NC(=O)[C@H](C(C)C)NC2=O)c1` (stereo partly drawn) [Compound 3400] ({CH2CO}-RY(Carboxymethyl)D[Phe(3-Me)]V[Bip][Cit][Orn][dL][Dab][Cha]V[Thr(3ξ)]C[AEEA][d(γGlu)][Aun]-OH; thioether N-14), the IC50 stood at 8.7 nM.
